Where two headings read alike, the source gives them in different places.
Assays:
[1] = system: human cancer cell lines; assay: Cytotoxicity across the panel of human cancer cell lines (average, high-throughput assays); format: cell-based; details: for IC50: read-out: Cancerous Average IC50 / Average IC50 in Cancer Cell Lines; for further fold increase in potency from multiple phenyl rings: average IC50 compared with single-ring 23 and 38
Text: (§1) Five serial 1:2 dilutions were made with anhydrous DMSO at 100× the final concentration used in the assay.

[2] = system: HT-29 cells; assay: MTT cytotoxicity assay, HT-29; format: cell-based; details: Homo sapiens
Text: The IC50 value for each library member represents at least twelve replicates of dose-response experiments conducted over five concentrations. […] In this assay, live cells were distinguished by the intracellular enzymatic activity that converts the cell-permeable molecule MTT to strongly colored formazan crystals, which are retained within live cells and absorb light at 570 nm.
MTT Cytotoxicity Assay. HT-29 cell lines were maintained in RPMI medium 1640 supplemented with 10% (wt/vol) FBS and 1% penicillin-streptomycin (PS) (100 units/mL and 100 μg/mL). Cells were harvested by trypsinization using 0.25% trypsin and 0.1% EDTA and plated at a density of 2,000-5,000 cells per well of each 96-well microtiter plate. Cells were grown for 24 h at 37° C., with 5% CO2/95% air in a humidified incubator to allow cell attachment to occur before compound addition. Library members were stored at −20° C. under desiccating conditions before the assay. Library member stocks (1000×) were prepared in falcon tubes (BD Biosciences). Five dilutions were made with DMSO at 1000× the final concentration used in the assay. The 1000× stocks (3 μL) were diluted with complete culture medium (3 mL). Each plate contained twelve replicates of cells treated with 0.1% DMSO in complete cell culture medium that served as an individual negative control. Library member stocks (1×, 200 μL) were added to aspirated cells and replicated twelve times on each plate. Cells were incubated with the library members for 24 h before optical density reading. Test plates were removed from the incubator and washed once in sterile PBS to remove serum containing library members. Freshly-made 10×MTT solution in sterile PBS (5 mg/mL) was diluted 1:10 in serum-free culture medium and was sterilized using a 0.2 μm filter. Diluted MTT solution (1×, 50 μL) was added to each well and the plates were incubated in the dark for 2 h. Test plates were centrifuged at 1800×g for 5 min at 4° C. using a Beckman GPR centrifuge. MTT solution was removed by aspiration and 100 μL DMSO was added to each well to lyse cells and solubilize formazan crystals. Test plates were incubated in the dark at room temperature for 10 min. Plates were read for optical density at 570 nm.
IC50 Calculations. For each library member, at least three dose-response experiments were conducted on separate plates. […] To calculate IC50, percent inhibitions were plotted as a function of log[concentration] and then fit to a four-parameter logistic model that allowed for a variable Hill slope by using XLFIT 4.1 (ID Business Solutions, Emeryville, Calif.).

[3] = system: Hep3B cells; assay: Cell Titer-Glo cytotoxicity assay, Hep3B; format: cell-based; details: Homo sapiens, 72 h
Text: as §1

[4] = system: Du145 cells; assay: Calcein AM cytotoxicity assay, Du145; format: cell-based; details: Homo sapiens
Text: as §1

[5] = system: NCI/ADR RES cells; assay: Cell Titer-Glo cytotoxicity assay, NCI/ADR-RES; format: cell-based, human; details: Homo sapiens, NCI/ADR-RES, 72 h
Text: as §1

[6] = system: NCI-H460 cells; assay: Cell Titer-Glo cytotoxicity assay, NCI-H460; format: cell-based, human; details: Homo sapiens
Text: as §1

[7] = system: SF-268 cells; assay: Calcein AM cytotoxicity assay, SF-268; format: cell-based; details: Homo sapiens
Text: as §1

[8] = system: SK-OV-3 cells; assay: Cell Titer-Glo cytotoxicity assay, SK-OV-3; format: cell-based; details: Homo sapiens
Text: as §1

[9] = system: Hep3B cells; assay: Calcein AM cytotoxicity assay, Hep3B; format: cell-based; details: Homo sapiens, 72 h
Text: as §1

[10] = system: NCI-H460 cells; assay: Calcein AM cytotoxicity assay, NCI-H460; format: cell-based; details: Homo sapiens
Text: as §1

[11] = system: MCF7 cells; assay: Calcein AM cytotoxicity assay, MCF7; format: cell-based; details: Homo sapiens
Text: as §1

[12] = system: SK-OV-3 cells; assay: Calcein AM cytotoxicity assay, SK-OV-3; format: cell-based; details: Homo sapiens
Text: as §1

[13] = system: HCT-116 cells; assay: Cell Titer-Glo cytotoxicity assay, HCT-116; format: cell-based; details: Homo sapiens
Text: as §1

[14] = system: NCI/ADR RES cells; assay: Calcein AM cytotoxicity assay, NCI/ADR-RES; format: cell-based; details: Homo sapiens, 72 h
Text: as §1

[15] = system: NmuMG mouse mammary normal epithelial cells; assay: Calcein AM cytotoxicity assay, NmuMG; format: cell-based; details: Epithelial cell, 72 h
Text: as §1

[16] = system: SF-268 cells; assay: Cell Titer-Glo cytotoxicity assay, SF-268; format: cell-based; details: Homo sapiens
Text: as §1

[17] = system: MCF7 cells; assay: Cell Titer-Glo cytotoxicity assay, MCF7; format: cell-based, human; details: Homo sapiens
Text: as §1

[18] = system: HCT-116 cells; assay: Calcein AM cytotoxicity assay, HCT-116; format: cell-based; details: Homo sapiens
Text: as §1

[19] = system: NmuMG mouse mammary normal epithelial cells; assay: Cell Titer-Glo cytotoxicity assay, NmuMG; format: cell-based; details: Mus musculus, Epithelial cell, 72 h
Text: as §1

[20] = system: Du145 cells; assay: Cell Titer-Glo cytotoxicity assay, Du145; format: cell-based; details: Homo sapiens
Text: as §1

[21] = average across eight human cancer cell lines, MTT (HT-29) values excluded
[22] = HT-29, MTT, 24 h, read-out: IC50
[23] = DU-145, Du145, Calcein AM, 72 h, read-out: IC50
[24] = NCI-H460, Cell Titer-Glo, 72 h, read-out: IC50
[25] = SF-268, Calcein AM, 72 h, read-out: IC50
[26] = SK-OV-3, Cell Titer-Glo, 72 h, read-out: IC50
[27] = NCI-H460, Calcein AM, 72 h, read-out: IC50
[28] = MCF7, Calcein AM, 72 h, read-out: IC50
[29] = SK-OV-3, Calcein AM, 72 h, read-out: IC50
[30] = HCT-116, Cell Titer-Glo, 72 h, read-out: IC50
[31] = NmuMG, Calcein AM, read-out: IC50
[32] = SF-268, Cell Titer-Glo, 72 h, read-out: IC50
[33] = MCF7, Cell Titer-Glo, 72 h, read-out: IC50
[34] = HCT-116, Calcein AM, 72 h, read-out: IC50
[35] = NmuMG, Cell Titer-Glo, read-out: IC50
[36] = DU-145, Du145, Cell Titer-Glo, 72 h, read-out: IC50

Structure (SMILES): S=C=NCc1ccc2c(c1)OCO2 [Compound 29, 5-(isothiocyanatomethyl)benzo[d][1,3]dioxole]
- IC50 [1, 21]: 5.77 µM
- IC50 [2, 22]: 30.3 µM
- IC50 ([3]; Cell Titer-Glo, read-out: IC50): 4.3 µM
- IC50 [4, 23]: 2.18 µM
- IC50 ([5]; Cell Titer-Glo, read-out: IC50): 9.77 µM
- IC50 [6, 24]: 11.5 µM
- IC50 [7, 25]: 2.55 µM
- IC50 [8, 26]: 4.44 µM
- IC50 ([9]; Calcein AM, read-out: IC50): 3.9 µM
- IC50 [10, 27]: 9.59 µM
- IC50 [11, 28]: 3.15 µM
- IC50 [12, 29]: 2.79 µM
- IC50 [13, 30]: 4.77 µM
- IC50 ([14]; Calcein AM, read-out: IC50): 6.39 µM
- IC50 [15, 31]: < 12.5 µM
- IC50 [16, 32]: 3.92 µM
- IC50 [17, 33]: 2.51 µM
- IC50 [18, 34]: > 20 µM
- IC50 [19, 35]: 17 µM
- IC50 [20, 36]: 6.24 µM

Structure (SMILES): C[S+]([O-])CCCCN=C=S (stereo not shown) [Compound 2, 1-isothiocyanato-4-(methylsulfinyl) butane, reference compound]
- selectivity for cancer cells over NmuMG cells [1]: 1.3 fold
- IC50 ([1]; Homo sapiens): 5.26 µM
- IC50 ([2]; HT-29, 24 h): 45.2 µM
- IC50 [3]: 4.48 µM
- IC50 ([4]; DU-145, 72 h): 5.25 µM
- IC50 [5]: 8.98 µM
- IC50 ([6]; NCI-H460, 72 h): 5.94 µM
- IC50 ([7]; SF-268, 72 h): 11 µM
- IC50 ([8]; SK-OV-3, 72 h): 4.67 µM
- IC50 [9]: 4.13 µM
- IC50 ([10]; NCI-H460, 72 h): 8.74 µM
- IC50 ([11]; MCF7, 72 h): 3.14 µM
- IC50 ([12]; SK-OV-3, 72 h): 7.6 µM
- IC50 ([13]; HCT-116, 72 h): 3.58 µM
- IC50 [14]: 8.89 µM
- IC50 [15]: 6.86 µM
- IC50 ([16]; SF-268, 72 h): 6.16 µM
- IC50 ([17]; MCF7, 72 h): < 3.13 µM
- IC50 ([18]; HCT-116, 72 h): 2.94 µM
- IC50 [19]: 6.59 µM
- IC50 ([20]; DU-145, 72 h): 6.1 µM

Structure (SMILES): S=C=NCc1ccccc1Br [Compound 25, 1-bromo-2-(isothiocyanatomethyl)benzene]
- IC50 [1, 21]: 10.1 µM
- IC50 [2, 22]: 26.9 µM
- IC50 ([3]; Cell Titer-Glo, read-out: IC50): 16.3 µM
- IC50 [4, 23]: 3.99 µM
- IC50 ([5]; Cell Titer-Glo, read-out: IC50): 20.1 µM
- IC50 [6, 24]: 17.3 µM
- IC50 [7, 25]: 6 µM
- IC50 [8, 26]: 5.01 µM
- IC50 ([9]; Calcein AM, read-out: IC50): 5.67 µM
- IC50 [10, 27]: 19.4 µM
- IC50 [11, 28]: 6.76 µM
- IC50 [12, 29]: 6.32 µM
- IC50 [13, 30]: 3.88 µM
- IC50 ([14]; Calcein AM, read-out: IC50): > 20 µM
- IC50 [15, 31]: 11.3 µM
- IC50 [16, 32]: 7.11 µM
- IC50 [17, 33]: 2.73 µM
- IC50 [18, 34]: 19.6 µM
- IC50 [19, 35]: 4.6 µM
- IC50 [20, 36]: 8.64 µM

Structure (SMILES): S=C=NCc1ccc(Oc2ccccc2)cc1 [Compound 36, 1-(isothiocyanatomethyl)-4-phenoxybenzene]
- further fold increase in potency from multiple phenyl rings [1]: ~2 fold
- IC50 [1, 21]: 4.84 µM
- IC50 [2, 22]: 37.6 µM
- IC50 ([3]; Cell Titer-Glo, read-out: IC50): 3.95 µM
- IC50 [4, 23]: 12.2 µM
- IC50 ([5]; Cell Titer-Glo, read-out: IC50): 3.3 µM
- IC50 [6, 24]: 9.12 µM
- IC50 [7, 25]: 6.17 µM
- IC50 [8, 26]: 3.99 µM
- IC50 ([9]; Calcein AM, read-out: IC50): 7.17 µM
- IC50 [10, 27]: 4.47 µM
- IC50 [11, 28]: 6.34 µM
- IC50 [12, 29]: 3.93 µM
- IC50 [13, 30]: 3.55 µM
- IC50 ([14]; Calcein AM, read-out: IC50): 3.93 µM
- IC50 [15, 31]: < 12.5 µM
- IC50 [16, 32]: 5.06 µM
- IC50 [17, 33]: 6.16 µM
- IC50 [18, 34]: 4.19 µM
- IC50 [19, 35]: 187 µM
- IC50 [20, 36]: 8.24 µM

Structure (SMILES): S=C=NCc1ccc(-c2ccccc2)cc1 [Compound 35, 1-(isothiocyanatomethyl)-4-phenylbenzene]
- further fold increase in potency from multiple phenyl rings [1]: ~2 fold
- IC50 [1, 21]: 7.89 µM
- IC50 [2, 22]: > 50 µM
- IC50 ([3]; Cell Titer-Glo, read-out: IC50): 4.51 µM
- IC50 [4, 23]: 5.49 µM
- IC50 ([5]; Cell Titer-Glo, read-out: IC50): 12.1 µM
- IC50 [6, 24]: 15 µM
- IC50 [7, 25]: 6.26 µM
- IC50 [8, 26]: 4.65 µM
- IC50 ([9]; Calcein AM, read-out: IC50): 4.33 µM
- IC50 [10, 27]: 10.5 µM
- IC50 [11, 28]: 2.91 µM
- IC50 [12, 29]: < 3.13 µM
- IC50 [13, 30]: 4.83 µM
- IC50 ([14]; Calcein AM, read-out: IC50): 6.73 µM
- IC50 [15, 31]: < 12.5 µM
- IC50 [16, 32]: 4.4 µM
- IC50 [17, 33]: 6.72 µM
- IC50 [18, 34]: 7.54 µM
- IC50 [19, 35]: 65.7 µM
- IC50 [20, 36]: 11 µM

From patent US20080312164A1 (priority 2006, published 2008)
